Molecular target: T1, GPCR GPR40 (Homo sapiens, UniProt O14842)
T1 construct: expressed in transfected cells; host or cells: HEK293
Experiment: In vitro FLIPR assay with recombinant cells which express the GPCR GPR40
Type: cell-based
Details: 100 μM test substance; intracellular Ca2+ change in recombinant HEK293 cells expressing GPR40; relative to control (0%: no test substance; 100%: 10 μM linoleic acid)
Method: In Vitro FLIPR Assay with Recombinant Cells which Express the GPCR GPR40
Function-testing assays were carried out by means of the FLIPR technique (“Fluorescence Imaging Plate Reader”, Molecular Devices Corp.). For this purpose, agonist-induced changes in the intracellular concentration of Ca^2+ in recombinant HEK293 cells which expressed the GPCR GPR40 were determined.
For the investigations, cells were seeded in 96-well microtiter plates (60 000 cells/well) and allowed to grow overnight. The medium was removed and the cells were incubated in buffer which contained the fluorescent dye fluo-4. After this loading with dye, the cells were washed, test substance was added, and changes in the intracellular Ca^2+ concentration were measured in the FLIPR instrument. Results have been presented as percentage change relative to the control (0%: no test substance added; 100%: 10 μM reference agonist linoleic acid added).

T1 sequence (O14842 whole entry): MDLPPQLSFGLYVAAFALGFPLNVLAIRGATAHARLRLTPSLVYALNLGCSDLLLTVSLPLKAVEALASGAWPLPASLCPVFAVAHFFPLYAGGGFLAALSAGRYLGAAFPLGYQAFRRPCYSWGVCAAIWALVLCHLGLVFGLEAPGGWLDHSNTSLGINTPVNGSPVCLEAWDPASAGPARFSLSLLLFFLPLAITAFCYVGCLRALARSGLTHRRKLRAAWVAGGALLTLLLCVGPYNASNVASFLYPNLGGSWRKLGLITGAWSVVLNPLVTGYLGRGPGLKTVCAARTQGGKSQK

Row | SMILES | % activation @ 100 μM [%]
1 | O=C(O)CCCC#Cc1ncc(-c2ccccc2)c(-c2ccccc2)n1 [Example 1] | 58
2 | O=C(O)CCCCC#Cc1ncc(-c2ccccc2)c(-c2ccccc2)n1 [Example 2, 7-(4,5-Diphenylpyrimidin-2-yl)-6-heptynoic Acid] | 104
